PMC5898815 (Journal of medicinal chemistry, 2018)

Columns and labels:
PAMPA permeability = assay type: in vitro ADME
DCN1 and DCN2 = experiment: Pulse-chase isoform selectivity, NEDD8 transfer from UBE2M to CUL2; assay type: biochemical, human; conditions: pulse-chase assay against all five DCN family members
[1] = tested on: cullin neddylation in HCC95 cells; experiment: Western blot for inhibition of cellular cullin neddylation in HCC95 cells; assay type: cell-based; conditions: MLN4924 1 μM, single dose, 48 hours (Figure 7)
[2] = tested on: total cellular ubiquitination; conditions: cited from earlier work

CCCN1CCC(N(Cc2ccccc2)C(=O)Nc2cccc(C(F)(F)F)c2)CC1 [Compound 42]
Pampa (PAMPA permeability): 1800 ± 1 ×10^−6 cm/s
Selectivity for inhibiting neddylation activity of DCN1 and DCN2 over DCN3-5 (DCN1 and DCN2): selective and approximately equipotent inhibition

NS(=O)(=O)OC[C@@H]1C[C@@H](n2ccc3c(N[C@H]4CCc5ccccc54)ncnc32)C[C@@H]1O [Pevonedistat, reference compound]
Inhibition of cullin neddylation in cells by positive control [1]: completely inhibits all cullin neddylation
Reduction of total cellular ubiquitination [2]: 10-20%
